From patent US8871818B2, “Gastrointestinal absorption enhancer mediated by proton-coupled transporter and its preparing method” (Otsuka Pharmaceutical Co., Ltd., priority 2003, dated 2014)

Legend:
[1] = system: Caco-2 cells; experiment: Cellular uptake into Caco-2 cells under various pH conditions (pH profile); assay type: in vitro ADME, human; conditions: 2 mM, uptake over 15 minutes
Method: To investigate the effect of extracellular fluid on the cellular uptake of dipeptides and β-lactam antibiotics transported by PEPT1, the cellular uptake of dipeptides, i.e., [^14C]glycylsarcosine ([^14C]GlySar) and [^3H]carnosine, and β-lactam antibiotics, i.e., cefadroxil (CDX), cefixime (CFIX), and FK089, was evaluated at pH 5.0 to 7.0 using gastrointestinal tract model cells (Caco-2 cells).
Cells cultured on 4-well plates were rinsed 3 times with 1 mL Hanks' balanced salt solution (HBSS: 0.952 mM CaCl2, 5.36 mM KCl, 0.441 mM KH2PO4, 0.812 mM MgSO4, 136.7 mM NaCl, 0.385 mM Na2HPO4, 25 mM D-glucose, 10 mM HEPES; pH 7.4; osmotic pressure 315 mOs/kg) heated to 37° C., and uptake was initiated by adding 250 μL HBSS containing medical fluid. Uptake was terminated at a predetermined period of time by washing the cells 3 times with 1 mL ice-cooled HBSS. […] The medicaments contained in the solution extracted from the cells were quantified by a liquid scintillation counter or liquid chromatography (HPLC). Proteins contained in the cells were quantified using a protein assay kit (Bio-Rad, Richmond, Calif., USA) according to the Bradford assay (Bradford, M. M. “A Rapid and Sensitive Method for the Quantitation of Microgram Quantities of Protein Utilizing the Principle of Protein-Dye Binding”. Anal. Biochem. 72 (1976): 248-254). […]

[2] = system: rat ileum; experiment: Absorption in rat intestinal loop, in situ closed loop method; assay type: in vivo; conditions: 20 minutes, CDX 1 mM or CFIX 0.5 mM in MES buffer pH 6.0
Method: For example, rats are anesthetized by intraperitoneally administering pentobarbital sodium (50 mg/kg). Then, laparotomy is performed along the median line to expose the intestinal tract, and a loop is formed at the ileum (e.g., FIG. 6). MES buffer containing medical fluid and a polymer (5 mM KCl, 100 mM NaCl, 10 mM 2-(N-morpholino)ethanesulfonic acid (MES), 85 mM mannitol, 0.01% polyethylene glycol; pH 6.0; osmotic pressure 290 mOs/kg) is introduced into the intestinal loop and both ends of the loop are ligated. Subsequently, the intestinal loop is immediately returned to the abdominal cavity. An incandescent lamp is used to maintain the body temperature. The solution inside the intestinal loop is retrieved 20 minutes after its administration. The pH was measured by pH-meter. The amount of medicaments are measured by HPLC.
The oral composition of the invention was prepared by adding a β-lactam antibiotic (CDX or CFIX) to 10 mM MES buffer (pH 6.0) such that the buffer contained CDX in an amount of 1 mM or CFIX in an amount of 0.5 mM, and further adding Eudragit L100-55 to the buffer so that it contained in a proportion of 10 or 20 wt. % based on the amount of the entire oral composition. A β-lactam antibiotic solution containing no Eudragit L100-55 was prepared as a control.
These compositions were administered into the intestinal loops prepared at the caecum junction of SD male rats (junction between the terminal of the ileum and where the caecum starts) to a distance of 14 cm toward the stomach. The solution remaining in the intestinal loops was retrieved 20 minutes after administration. The concentration of β-lactam antibiotic in the retrieved solution was measured by HPLC, and pH of the retrieved solution was measured using a pH meter. Absorbability was evaluated according to the decrease in the concentration of β-lactam antibiotic in the retrieved solution in comparison with the concentration thereof in the solution administered.

[3] = Plasma concentration of CFIX after oral administration to rats with polymer and/or CDX; assay type: in vivo; conditions: male, SD, rat, CFIX 2.3 mg/kg, polymer 500 mg/kg
Method: To investigate whether absorption of orally-administered peptidergic compounds in rats is improved by controlling gastrointestinal pH using pH-sensitive polymers, the time course of the plasma concentration of CFIX was examined after orally administering the peptidergic compound CFIX in combination with a pH-sensitive polymer (Eudragit L100-55) or pH-insensitive polymer (Eudragit RS PO).
The oral composition of the invention was prepared by adding Eudragit L100-55 to an aqueous solution of CFIX (0.23 mg/mL) such that the solution contained Eudragit L100-55 in a proportion of 5 wt. % based on the amount of the entire oral composition. A CFIX solution containing no Eudragit L100-55 was prepared as a control. These compositions were orally administered to SD male rats (body weight: 190 to 220 g) fasted for an entire day and night such that CFIX was given in a dose of 2.3 mg/kg. Blood was collected 15 to 480 minutes after administration, and the plasma concentration of CFIX was measured by HPLC. Based on the plasma concentration profile of CFIX thus obtained, the area under the plasma drug concentration-time curve (AUC) and highest drug concentration observed in plasma following administration of an extravascular dose (Cmax) were obtained.
Plots (◯) represent absorption of CFIX in the absence of a polymer, plots (●) represent absorption of CFIX in the presence of Eudragit L100-55 (500 mg/kg), and plots (□) represent absorption of CFIX in the presence of Eudragit RS PO (500 mg/kg). Each plot represents the mean±standard error of 5 experiments.
The experimental procedure was as described in Example 4 except that CDX was simultaneously administered.
FIG. 5 depicts the influence of CDX on the oral administration profile of CFIX after administering the composition (CFIX: 2.3 mg/kg) to rats. Plots (●) represent absorption of CFIX when Eudragit L100-55 (500 mg/kg) and 0 mM CDX were used, plots (▴) represent absorption of CFIX when Eudragit L100-55 (500 mg/kg) and 2 mM CDX were used, and plots (▪) represent absorption of CFIX when Eudragit L100-55 (500 mg/kg) and 10 mM CDX were used. […]

Row | pH of optimum uptake into Caco-2 cells ([1]; pH 5.0 to 7.0) | absorption from rat intestinal loop ([2]; no Eudragit L100-55) | absorption from rat intestinal loop ([2]; with Eudragit L100-55 20 wt. %) | cellular uptake when pH of extracellular fluid is decreased from 6.0 to 5.0 ([1]; Caco-2 cells) | Cmax [3] | Tmax [3] | AUC(0-t) ([3]; read-out: AUC0-8h of CFIX) | Compound
1 | 6.0 | about 40% | about 80% | – | – | – | – | CC1=C(C(=O)O)N2C(=O)[C@@H](NC(=O)[C@H](N)c3ccc(O)cc3)[C@H]2SC1 [CDX, cefadroxil]
2 | – | hardly absorbed | about 35% | greatly enhanced | 4130 ± 500 ng/mL | 43.2 ± 12 min | 10800 ± 1480 ng·h/mL | C=CC1=C(C(=O)O)N2C(=O)[C@@H](NC(=O)/C(=N\OCC(=O)O)c3csc(N)n3)[C@H]2SC1 [CFIX, cefixime]
